Assay results as given in the NIST ThermoML archive (doi:10.1016/j.jct.2019.04.010).

Experiment: xn = mol fraction of the nth substance listed
Conditions: 100 kPa, Liquid; for viscosity: Concentric cylinders viscometry; for mass density: Vibrating tube method

CCCCn1cc[n+](C)c1.O=[N+]([O-])[O-] [1-butyl-3-methylimidazolium nitrate] + CC(C)O
Conditions | mass density, 293.15 K [kg/m3] | mass density, 298.15 K [kg/m3] | mass density, 303.15 K [kg/m3] | viscosity, 293.15 K [mPa·s] | viscosity, 298.15 K [mPa·s] | viscosity, 303.15 K [mPa·s] | viscosity, 308.15 K [mPa·s]
x1 = 0.0815 | 853.9 | 849.9 | 846 | 4.18 | 3.66 | 3.29 | 2.93
x1 = 0.1596 | 906.3 | 902.5 | 898.7 | 6.88 | 5.95 | 5.22 | 4.55
x1 = 0.2405 | 951.1 | 947.4 | 943.8 | 10.99 | 9.26 | 8 | 6.55
x1 = 0.3495 | 1000.3 | 996.7 | 993.2 | 18 | 15.42 | 12.83 | 10.13
x1 = 0.4405 | 1034 | 1030.5 | 1027.2 | 26 | 22 | 17.76 | 14.06
x1 = 0.5607 | 1070.7 | 1067.4 | 1064.2 | 39.8 | 33.04 | 26.4 | 20.79
x1 = 0.6506 | 1093.8 | 1090.6 | 1087.4 | 53.28 | 42.9 | 34.49 | 27.05
x1 = 0.7413 | 1114.1 | 1110.9 | 1107.9 | 69.94 | 55.5 | 45.29 | 36.2
x1 = 0.8515 | 1135 | 1131.9 | 1129 | 105.6 | 81.6 | 63.3 | 50.5
x1 = 0.9396 | 1149.7 | 1146.6 | 1143.6 | 157.7 | 122.4 | 90.3 | 72.4
x1 = 1 | 1158.3 | 1155.2 | 1152.3 | 223.54 | 168.97 | 125.36 | 96.74
